Earlier results in patent publication US20220280561A1, “COPPER-ATSM FOR TREATING NEURODEGENERATIVE DISORDERS ASSOCITED WITH MITOCHONDRIAL DYSFUNCTION” (RESEARCH INSTITUTE AT NATIONWIDE CHILDREN'S HOSPITAL, priority 2019, published 2022).

Tested on: ALS
Conditions: ALS patients; cited from earlier work

SMILES | lifespan | patient quality of life
Nc1nc2ccc(OC(F)(F)F)cc2s1 [Riluzole] | modestly extending lifespan | 
CC1=NN(c2ccccc2)C(=O)C1 [Edaravone] |  | significant impact on patient quality of life
